Data from patent publication US9561249B2, “Pharmaceutical formulations of nitrite and uses thereof” (TheraVasc Inc., priority 2013, dated 2017).
Read-outs that look alike come from different tables or passages of the source.

Tested on: subjects with PAD
Procedure: Supine vital signs were measured at the Screening Visit. The subject rested in a supine position for a minimum of 3 minutes prior to obtaining vital sign measurements. Vital signs included BP and pulse rate. Postural vital signs, including both supine and standing measurements of blood pressure and pulse rate, were recorded at all study visits following the first dose of IP administration. Measurements were performed as follows: (1) the subject rested in a supine position for a minimum of 3 minutes, (2) vital signs (BP and pulse rate) were measured while the subject was supine, (3) the subject assumed a standing position for a minimum of 5 minutes, and (4) vital signs (BP and pulse rate) were measured while the subject was standing.

[1] = 40-mg group, Screening (baseline)
[2] = 40-mg group, Visit 7 (Day 71, dose doubled)
[3] = 40-mg group, Visit 8 (6 days after dose doubling)
[4] = 80-mg group, Screening (baseline)
[5] = 80-mg group, Visit 7 (Day 71, dose doubled)
[6] = 80-mg group, Visit 8 (6 days after dose doubling)

Structure (SMILES): O=NO [sodium nitrite]
- Blood Pressure diastolic, Supine (Mean) [1]: 75.8
- Blood Pressure systolic, Supine (Mean) [1]: 136.8
- Pulse, Supine (Mean) [1]: 71.4
- Blood Pressure diastolic, Standing (Mean) (40-mg group, Visit 1 (Day 0)): 73.1
- Blood Pressure diastolic, Supine (Mean) (40-mg group, Visit 1 (Day 0)): 72.3
- Blood Pressure systolic, Standing (Mean) (40-mg group, Visit 1 (Day 0)): 129.5
- Blood Pressure systolic, Supine (Mean) (40-mg group, Visit 1 (Day 0)): 129.7
- Diastolic BP, Orthostatic Changes (40-mg group, Visit 1 (Day 0)): 0.8
- Pulse, Orthostatic Changes (40-mg group, Visit 1 (Day 0)): 1.8
- Pulse, Standing (Mean) (40-mg group, Visit 1 (Day 0)): 75.8
- Pulse, Supine (Mean) (40-mg group, Visit 1 (Day 0)): 74.1
- Systolic BP, Orthostatic Changes (40-mg group, Visit 1 (Day 0)): −0.3
- Blood Pressure diastolic, Standing (Mean) (40-mg group, Visit 2 (Day 1)): 72.6
- Blood Pressure diastolic, Supine (Mean) (40-mg group, Visit 2 (Day 1)): 70.5
- Blood Pressure systolic, Standing (Mean) (40-mg group, Visit 2 (Day 1)): 128.3
- Blood Pressure systolic, Supine (Mean) (40-mg group, Visit 2 (Day 1)): 128.0
- Diastolic BP, Orthostatic Changes (40-mg group, Visit 2 (Day 1)): 2.1
- Pulse, Orthostatic Changes (40-mg group, Visit 2 (Day 1)): 4.5
- Pulse, Standing (Mean) (40-mg group, Visit 2 (Day 1)): 78.6
- Pulse, Supine (Mean) (40-mg group, Visit 2 (Day 1)): 74.1
- Systolic BP, Orthostatic Changes (40-mg group, Visit 2 (Day 1)): 0.3
- Blood Pressure diastolic, Standing (Mean) (40-mg group, Visit 3 (Day 4)): 73.1
- Blood Pressure diastolic, Supine (Mean) (40-mg group, Visit 3 (Day 4)): 72.5
- Blood Pressure systolic, Standing (Mean) (40-mg group, Visit 3 (Day 4)): 129.4
- Blood Pressure systolic, Supine (Mean) (40-mg group, Visit 3 (Day 4)): 129.8
- Diastolic BP, Orthostatic Changes (40-mg group, Visit 3 (Day 4)): 0.6
- Pulse, Orthostatic Changes (40-mg group, Visit 3 (Day 4)): 2.0
- Pulse, Standing (Mean) (40-mg group, Visit 3 (Day 4)): 76.7
- Pulse, Supine (Mean) (40-mg group, Visit 3 (Day 4)): 74.7
- Systolic BP, Orthostatic Changes (40-mg group, Visit 3 (Day 4)): −0.4
- Blood Pressure diastolic, Standing (Mean) (40-mg group, Visit 4 (Day 14)): 71.0
- Blood Pressure diastolic, Supine (Mean) (40-mg group, Visit 4 (Day 14)): 71.1
- Blood Pressure systolic, Standing (Mean) (40-mg group, Visit 4 (Day 14)): 124.9
- Blood Pressure systolic, Supine (Mean) (40-mg group, Visit 4 (Day 14)): 128.4
- Diastolic BP, Orthostatic Changes (40-mg group, Visit 4 (Day 14)): −0.1
- Pulse, Orthostatic Changes (40-mg group, Visit 4 (Day 14)): 3.9
- Pulse, Standing (Mean) (40-mg group, Visit 4 (Day 14)): 75.6
- Pulse, Supine (Mean) (40-mg group, Visit 4 (Day 14)): 71.7
- Systolic BP, Orthostatic Changes (40-mg group, Visit 4 (Day 14)): −3.4
- Blood Pressure diastolic, Standing (Mean) (40-mg group, Visit 5 (Day 28)): 71.6
- Blood Pressure diastolic, Supine (Mean) (40-mg group, Visit 5 (Day 28)): 72.0
- Blood Pressure systolic, Standing (Mean) (40-mg group, Visit 5 (Day 28)): 124.3
- Blood Pressure systolic, Supine (Mean) (40-mg group, Visit 5 (Day 28)): 124.1
- Diastolic BP, Orthostatic Changes (40-mg group, Visit 5 (Day 28)): −0.4
- Pulse, Orthostatic Changes (40-mg group, Visit 5 (Day 28)): 3.8
- Pulse, Standing (Mean) (40-mg group, Visit 5 (Day 28)): 76.6
- Pulse, Supine (Mean) (40-mg group, Visit 5 (Day 28)): 72.7
- Systolic BP, Orthostatic Changes (40-mg group, Visit 5 (Day 28)): 0.3
- Blood Pressure diastolic, Standing (Mean) (40-mg group, Visit 6 (Day 70)): 73.2
- Blood Pressure diastolic, Supine (Mean) (40-mg group, Visit 6 (Day 70)): 73.7
- Blood Pressure systolic, Standing (Mean) (40-mg group, Visit 6 (Day 70)): 127.6
- Blood Pressure systolic, Supine (Mean) (40-mg group, Visit 6 (Day 70)): 127.3
- Diastolic BP, Orthostatic Changes (40-mg group, Visit 6 (Day 70)): −0.5
- Pulse, Orthostatic Changes (40-mg group, Visit 6 (Day 70)): 3.5
- Pulse, Standing (Mean) (40-mg group, Visit 6 (Day 70)): 73.9
- Pulse, Supine (Mean) (40-mg group, Visit 6 (Day 70)): 7034
- Systolic BP, Orthostatic Changes (40-mg group, Visit 6 (Day 70)): 0.3
- Blood Pressure diastolic, Standing (Mean) [2]: 73.2
- Blood Pressure diastolic, Supine (Mean) [2]: 71.3
- Blood Pressure systolic, Standing (Mean) [2]: 122.2
- Blood Pressure systolic, Supine (Mean) [2]: 126.7
- Diastolic BP, Orthostatic Changes [2]: 1.9
- Pulse, Orthostatic Changes [2]: 3.2
- Pulse, Standing (Mean) [2]: 76.3
- Pulse, Supine (Mean) [2]: 73.1
- Systolic BP, Orthostatic Changes [2]: −4.5
- Blood Pressure diastolic, Standing (Mean) [3]: 68.7
- Blood Pressure diastolic, Supine (Mean) [3]: 72.2
- Blood Pressure systolic, Standing (Mean) [3]: 123.1
- Blood Pressure systolic, Supine (Mean) [3]: 130.0
- Diastolic BP, Orthostatic Changes [3]: −3.5
- Pulse, Orthostatic Changes [3]: 4.1
- Pulse, Standing (Mean) [3]: 74.3
- Pulse, Supine (Mean) [3]: 70.2
- Systolic BP, Orthostatic Changes [3]: −6.9
- Blood Pressure diastolic, Supine (Mean) [4]: 69.4
- Blood Pressure systolic, Supine (Mean) [4]: 132.4
- Pulse, Supine (Mean) [4]: 63.9
- Blood Pressure diastolic, Standing (Mean) (80-mg group, Visit 1 (Day 0)): 70.2
- Blood Pressure diastolic, Supine (Mean) (80-mg group, Visit 1 (Day 0)): 68.4
- Blood Pressure systolic, Standing (Mean) (80-mg group, Visit 1 (Day 0)): 125.4
- Blood Pressure systolic, Supine (Mean) (80-mg group, Visit 1 (Day 0)): 129.8
- Diastolic BP, Orthostatic Changes (80-mg group, Visit 1 (Day 0)): 1.8
- Pulse, Orthostatic Changes (80-mg group, Visit 1 (Day 0)): 6.9
- Pulse, Standing (Mean) (80-mg group, Visit 1 (Day 0)): 72.6
- Pulse, Supine (Mean) (80-mg group, Visit 1 (Day 0)): 65.6
- Systolic BP, Orthostatic Changes (80-mg group, Visit 1 (Day 0)): −4.4
- Blood Pressure diastolic, Standing (Mean) (80-mg group, Visit 2 (Day 1)): 71.9
- Blood Pressure diastolic, Supine (Mean) (80-mg group, Visit 2 (Day 1)): 66.7
- Blood Pressure systolic, Standing (Mean) (80-mg group, Visit 2 (Day 1)): 123.1
- Blood Pressure systolic, Supine (Mean) (80-mg group, Visit 2 (Day 1)): 122.8
- Diastolic BP, Orthostatic Changes (80-mg group, Visit 2 (Day 1)): 5.2
- Pulse, Orthostatic Changes (80-mg group, Visit 2 (Day 1)): 7.3
- Pulse, Standing (Mean) (80-mg group, Visit 2 (Day 1)): 72.3
- Pulse, Supine (Mean) (80-mg group, Visit 2 (Day 1)): 65.1
- Systolic BP, Orthostatic Changes (80-mg group, Visit 2 (Day 1)): 0.3
- Blood Pressure diastolic, Standing (Mean) (80-mg group, Visit 3 (Day 4)): 69.2
- Blood Pressure diastolic, Supine (Mean) (80-mg group, Visit 3 (Day 4)): 66.7
- Blood Pressure systolic, Standing (Mean) (80-mg group, Visit 3 (Day 4)): 124.8
- Blood Pressure systolic, Supine (Mean) (80-mg group, Visit 3 (Day 4)): 127.1
- Diastolic BP, Orthostatic Changes (80-mg group, Visit 3 (Day 4)): 2.5
- Pulse, Orthostatic Changes (80-mg group, Visit 3 (Day 4)): 6.2
- Pulse, Standing (Mean) (80-mg group, Visit 3 (Day 4)): 72.9
- Pulse, Supine (Mean) (80-mg group, Visit 3 (Day 4)): 66.7
- Systolic BP, Orthostatic Changes (80-mg group, Visit 3 (Day 4)): −2.3
- Blood Pressure diastolic, Standing (Mean) (80-mg group, Visit 4 (Day 14)): 68.8
- Blood Pressure diastolic, Supine (Mean) (80-mg group, Visit 4 (Day 14)): 65.2
- Blood Pressure systolic, Standing (Mean) (80-mg group, Visit 4 (Day 14)): 123.7
- Blood Pressure systolic, Supine (Mean) (80-mg group, Visit 4 (Day 14)): 125.1
- Diastolic BP, Orthostatic Changes (80-mg group, Visit 4 (Day 14)): 3.5
- Pulse, Orthostatic Changes (80-mg group, Visit 4 (Day 14)): 7.9
- Pulse, Standing (Mean) (80-mg group, Visit 4 (Day 14)): 72.6
- Pulse, Supine (Mean) (80-mg group, Visit 4 (Day 14)): 64.6
- Systolic BP, Orthostatic Changes (80-mg group, Visit 4 (Day 14)): −1.4
- Blood Pressure diastolic, Standing (Mean) (80-mg group, Visit 5 (Day 28)): 71.9
- Blood Pressure diastolic, Supine (Mean) (80-mg group, Visit 5 (Day 28)): 68.9
- Blood Pressure systolic, Standing (Mean) (80-mg group, Visit 5 (Day 28)): 119.5
- Blood Pressure systolic, Supine (Mean) (80-mg group, Visit 5 (Day 28)): 124.6
- Diastolic BP, Orthostatic Changes (80-mg group, Visit 5 (Day 28)): 3.0
- Pulse, Orthostatic Changes (80-mg group, Visit 5 (Day 28)): 3.8
- Pulse, Standing (Mean) (80-mg group, Visit 5 (Day 28)): 72.5
- Pulse, Supine (Mean) (80-mg group, Visit 5 (Day 28)): 68.7
- Systolic BP, Orthostatic Changes (80-mg group, Visit 5 (Day 28)): −5.2
- Blood Pressure diastolic, Standing (Mean) (80-mg group, Visit 6 (Day 70)): 70.0
- Blood Pressure diastolic, Supine (Mean) (80-mg group, Visit 6 (Day 70)): 66.2
- Blood Pressure systolic, Standing (Mean) (80-mg group, Visit 6 (Day 70)): 124.8
- Blood Pressure systolic, Supine (Mean) (80-mg group, Visit 6 (Day 70)): 123.1
- Diastolic BP, Orthostatic Changes (80-mg group, Visit 6 (Day 70)): 3.8
- Pulse, Orthostatic Changes (80-mg group, Visit 6 (Day 70)): 2.1
- Pulse, Standing (Mean) (80-mg group, Visit 6 (Day 70)): 67.6
- Pulse, Supine (Mean) (80-mg group, Visit 6 (Day 70)): 65.5
- Systolic BP, Orthostatic Changes (80-mg group, Visit 6 (Day 70)): 1.6
- Blood Pressure diastolic, Standing (Mean) [5]: 67.1
- Blood Pressure diastolic, Supine (Mean) [5]: 64.4
- Blood Pressure systolic, Standing (Mean) [5]: 123.3
- Blood Pressure systolic, Supine (Mean) [5]: 118.4
- Diastolic BP, Orthostatic Changes [5]: 2.7
- Pulse, Orthostatic Changes [5]: 6.1
- Pulse, Standing (Mean) [5]: 70.4
- Pulse, Supine (Mean) [5]: 64.3
- Systolic BP, Orthostatic Changes [5]: 4.8
- Blood Pressure diastolic, Standing (Mean) [6]: 67.9
- Blood Pressure diastolic, Supine (Mean) [6]: 66.9
- Blood Pressure systolic, Standing (Mean) [6]: 117.7
- Blood Pressure systolic, Supine (Mean) [6]: 120.7
- Diastolic BP, Orthostatic Changes [6]: 1.0
- Pulse, Orthostatic Changes [6]: 4.3
- Pulse, Standing (Mean) [6]: 72.6
- Pulse, Supine (Mean) [6]: 68.3
- Systolic BP, Orthostatic Changes [6]: −3.0
- Hypotensive effects (treated groups, 40 and 80 mg BID): Dose dependent hypotensive affects were observed
